In patent US20230124862A1, “BISMUTH THIOL COMPOUNDS AND COMPOSITIONS AND METHODS OF TREATING MICROBIAL CO-INFECTIONS” (Microbion Corporation, priority 2020, published 2023):
Where “and” joins values, the source holds several entries; their conditions need not be identical. Equal entries are not always repeated. Where two headings read alike, the source gives them in different places.

Assay type: in vivo, beagle dogs
Method: Once adequately conditioned to the restraint device and face-masks, the animals are individually exposed to the test article aerosols. Animals receive a single face-mask inhalation exposure in a ramp study design to test article aerosols for up to 60 min. Animal observations during and post exposure determine the tolerance of inhaled BisEDT aerosols.
Blood Collections and Bioanalytical Analysis: Blood are collected for pharmacokinetic (PK) analysis prior to exposure, then at 4 hr (±5 min) post exposure, and again on Day 1, Day 2, Day 7 (pre- and 4 hr (±5 min)-post exposure), Day 8, Day 9, Day 10, Day 11, Day 12, Day 13, and Day 14. A total of 0.25 mL is collected at each timepoint. No PK blood is collected from the vehicle control (Group 1) animals; only animals exposed to BisEDT have blood collected for PK analysis. Collected samples are flash frozen without processing for shipment to Medpace for bioanalytical analysis. Additional blood is collected from all animals in all groups for hematology (1 mL) and clinical chemistry (1 mL) at baseline, Day 7 (pre-exposure), and again at euthanasia. Blood (2-2 mL) is collected from all animals at necropsy for coagulation analysis (d-Dimer, fibrinogen, PT, and PTT).
For clinical chemistry analyses, whole blood (1 mL) is placed into serum separator or clot tube and […] by centrifugation at a minimum of 1300 g at 2 to 8° C. for 10 (±1) min. Plasma samples are stored at −70 to −90° C. until analysis.
Clinical chemistry samples are analyzed on a Hitachi Modular Analytics Clinical Chemistry System (Roche Diagnostics, Indianapolis, Ind.).

C1C[S][Bi]([S]CC[S][Bi]2[S]CC[S]2)[S]1 [BisEDT, Bismuth-1,2-ethanedithiol]
AGR (dog 2001 Male): 1.9 and 2.0 and 1.8
ALB (dog 2001 Male): 3.3 g/dL and 3.4 g/dL and 3.5 g/dL
ALPK (dog 2001 Male): 130 IU/L and 140 IU/L and 128 IU/L
ALT (dog 2001 Male): 22 IU/L
AST (dog 2001 Male): 48 IU/L and 36 IU/L
BUN (dog 2001 Male): 12 mg/dL and 16 mg/dL and 15 mg/dL
CA2 (dog 2001 Male): 10.9 mg/dL and 10.8 mg/dL and 11.0 mg/dL
CHOL (dog 2001 Male): 168 mg/dL and 167 mg/dL and 152 mg/dL
CREA (dog 2001 Male): 0.7 mg/dL and 0.6 mg/dL
Cl (dog 2001 Male): 109 mmo/L and 113 mmo/L and 108 mmo/L
GGT (dog 2001 Male): 3 IU/L
GLOB (dog 2001 Male): 1.7 g/dL and 2.0 g/dL
GLUC (dog 2001 Male): 91 mg/dL and 97 mg/dL and 102 mg/dL
K (dog 2001 Male): 4.5 mmo/L and 4.9 mmo/L and 4.7 mmo/L
Na (dog 2001 Male): 149 mmo/L and 147 mmo/L
TBIL (dog 2001 Male): 0.15 mg/dL
TP (dog 2001 Male): 5.0 g/dL and 5.1 g/dL and 5.5 g/dL
TRIG (dog 2001 Male): 66 mg/dL and 80 mg/dL and 63 mg/dL
AGR (dog 2002 Female): 1.7 and 2.3
ALB (dog 2002 Female): 3.3 g/dL and 3.6 g/dL and 3.7 g/dL
ALT (dog 2002 Female): 18 IU/L and 29 IU/L and 27 IU/L
AST (dog 2002 Female): 35 IU/L and 41 IU/L and 38 IU/L
BUN (dog 2002 Female): 13 mg/dL and 14 mg/dL
CA2 (dog 2002 Female): 10.9 mg/dL and 10.8 mg/dL and 10.6 mg/dL
CHOL (dog 2002 Female): 138 mg/dL and 123 mg/dL and 114 mg/dL
CREA (dog 2002 Female): 0.6 mg/dL
Cl (dog 2002 Female): 110 mmo/L and 114 mmo/L and 113 mmo/L
GGT (dog 2002 Female): 3 IU/L
GLOB (dog 2002 Female): 1.9 g/dL and 1.6 g/dL
GLUC (dog 2002 Female): 95 mg/dL and 98 mg/dL and 89 mg/dL
K (dog 2002 Female): 5.0 mmo/L and 5.2 mmo/L and 4.6 mmo/L
Na (dog 2002 Female): 149 mmo/L and 147 mmo/L and 148 mmo/L
TBIL (dog 2002 Female): 0.15 mg/dL
TP (dog 2002 Female): 5.2 g/dL and 5.3 g/dL
TRIG (dog 2002 Female): 38 mg/dL and 39 mg/dL and 31 mg/dL
AGR (dog 3001 Male): 2.0 and 2.1
ALB (dog 3001 Male): 3.2 g/dL and 3.4 g/dL
ALPK (dog 3001 Male): 142 IU/L and 135 IU/L and 121 IU/L
ALT (dog 3001 Male): 26 IU/L and 24 IU/L and 22 IU/L
AST (dog 3001 Male): 30 IU/L and 32 IU/L and 33 IU/L
CA2 (dog 3001 Male): 10.7 mg/dL and 10.5 mg/dL and 10.0 mg/dL
CHOL (dog 3001 Male): 100 mg/dL and 111 mg/dL
CREA (dog 3001 Male): 0.6 mg/dL and 0.7 mg/dL and 1.0 mg/dL
Cl (dog 3001 Male): 111 mmo/L and 110 mmo/L and 109 mmo/L
GGT (dog 3001 Male): 3 IU/L
GLOB (dog 3001 Male): 1.6 g/dL and 1.7 g/dL
GLUC (dog 3001 Male): 100 mg/dL and 88 mg/dL and 51 mg/dL
K (dog 3001 Male): 4.7 mmo/L and 5.1 mmo/L and 5.8 mmo/L
Na (dog 3001 Male): 146 mmo/L and 148 mmo/L
TBIL (dog 3001 Male): 0.15 mg/dL
TP (dog 3001 Male): 4.8 g/dL and 5.1 g/dL and 5.0 g/dL
TRIG (dog 3001 Male): 26 mg/dL and 34 mg/dL and 52 mg/dL
AGR (dog 3002 Female): 2.3 and 1.8 and 2.6
ALB (dog 3002 Female): 3.5 g/dL and 3.7 g/dL
ALPK (dog 3002 Female): 164 IU/L and 90 IU/L and 176 IU/L
ALT (dog 3002 Female): 28 IU/L and 20 IU/L
AST (dog 3002 Female): 36 IU/L and 28 IU/L and 30 IU/L
CA2 (dog 3002 Female): 11.2 mg/dL and 10.8 mg/dL and 10.4 mg/dL
CHOL (dog 3002 Female): 126 mg/dL and 175 mg/dL and 141 mg/dL
CREA (dog 3002 Female): 0.6 mg/dL and 0.5 mg/dL and 0.9 mg/dL
Cl (dog 3002 Female): 112 mmo/L and 109 mmo/L and 110 mmo/L
GGT (dog 3002 Female): 3 IU/L
GLOB (dog 3002 Female): 1.5 g/dL and 2.0 g/dL and 1.4 g/dL
GLUC (dog 3002 Female): 112 mg/dL and 90 mg/dL and 65 mg/dL
K (dog 3002 Female): 5.5 mmo/L and 5.3 mmo/L and 5.9 mmo/L
Na (dog 3002 Female): 149 mmo/L and 145 mmo/L
TBIL (dog 3002 Female): 0.15 mg/dL
TP (dog 3002 Female): 5.0 g/dL and 5.5 g/dL and 5.1 g/dL
TRIG (dog 3002 Female): 34 mg/dL and 43 mg/dL and 58 mg/dL
AGR (dog 4001 Male): 2.3 and 1.8 and 1.9
ALB (dog 4001 Male): 3.6 g/dL and 3.4 g/dL and 3.2 g/dL
ALPK (dog 4001 Male): 103 IU/L and 114 IU/L and 119 IU/L
ALT (dog 4001 Male): 27 IU/L and 28 IU/L
AST (dog 4001 Male): 32 IU/L and 39 IU/L and 34 IU/L
BUN (dog 4001 Male): 11 mg/dL and 12 mg/dL
CA2 (dog 4001 Male): 10.8 mg/dL and 10.6 mg/dL and 10.4 mg/dL
CHOL (dog 4001 Male): 153 mg/dL and 147 mg/dL and 111 mg/dL
CREA (dog 4001 Male): 0.7 mg/dL and 0.6 mg/dL
Cl (dog 4001 Male): 120 mmo/L and 116 mmo/L and 113 mmo/L
GGT (dog 4001 Male): 3 IU/L
GLOB (dog 4001 Male): 1.6 g/dL and 1.9 g/dL and 1.7 g/dL
GLUC (dog 4001 Male): 102 mg/dL and 82 mg/dL and 86 mg/dL
K (dog 4001 Male): 4.7 mmo/L and 4.8 mmo/L
Na (dog 4001 Male): 152 mmo/L and 147 mmo/L and 145 mmo/L
TBIL (dog 4001 Male): 0.15 mg/dL
TP (dog 4001 Male): 5.2 g/dL and 5.3 g/dL and 4.9 g/dL
TRIG (dog 4001 Male): 49 mg/dL and 46 mg/dL and 40 mg/dL
AGR (dog 4002 Female): 1.7 and 1.8
ALB (dog 4002 Female): 3.5 g/dL
ALPK (dog 4002 Female): 147 IU/L and 103 IU/L
ALT (dog 4002 Female): 20 IU/L and 21 IU/L
AST (dog 4002 Female): 32 IU/L and 35 IU/L
BUN (dog 4002 Female): 13 mg/dL and 12 mg/dL
CA2 (dog 4002 Female): 11.1 mg/dL and 11.2 mg/dL
CHOL (dog 4002 Female): 182 mg/dL and 169 mg/dL
CREA (dog 4002 Female): 0.6 mg/dL and 0.5 mg/dL
Cl (dog 4002 Female): 116 mmo/L and 112 mmo/L
